From patent US20240425482A1, “PYRROLIDINE DERIVATIVES AS DDRS INHIBITORS” (CHIESI FARMACEUTICI S.P.A., priority 2021, published 2024)
Like-named read-outs stand apart in the source and are kept apart here.

What was measured:
DDR2 = DDR2 (Homo sapiens (Human), UniProt Q16832); experiment: DDR2 LanthaScreen Europium Kinase Binding assay
Description: (§1) DDR1 and DDR2 binding assays were performed using Life Technologies LanthaScreen™ Europium Kinase Binding assay. The compounds were incubated with 5 nM DDR1 (Carna Biosciences) or 5 nM DDR2 (Life Technologies) for 1 hour at rt in white 384-well OptiPlate (PerkinElmer), containing 20 nM or 10 nM Kinase Tracer 178 respectively and 2 nM Europium labelled anti-GST antibody (Life Technologies) in assay buffer (50 mM HEPES pH 7.5, 10 mM MgCI2, 1 mM EGTA and 0.01% BRIJ35). The ratio of fluorescence emission 665 nm/615 nm after excitation at 340 nm was obtained using the Tecan Spark 20M plate reader. IC50 values were determined in GraphPad Prism 7.0 software, using 4 parameter model: log(inhibitor) vs. response. IC50 values were converted in Ki using the Cheng-Prusoff equation (Ki=IC50/(1+[Tracer]/Kd).
(§2) Compounds C1 and C2 were tested in the same binding assay described above.

DDR1 = DDR1 (Homo sapiens (Human), UniProt Q08345); experiment: DDR1 LanthaScreen Europium Kinase Binding assay
Description: as §1, §2

[1] = binding, 5 nM DDR2, 10 nM Kinase Tracer 178, 1 hour at rt, Ki from IC50 by Cheng-Prusoff, read-out: Ki DDR2
[2] = binding, 5 nM DDR1, 20 nM Kinase Tracer 178, 1 hour at rt, Ki from IC50 by Cheng-Prusoff, read-out: Ki DDR1
[3] = same binding assay, numeric values, read-out: DDR1 Ki

Sequence of DDR2 (Q16832 22-855): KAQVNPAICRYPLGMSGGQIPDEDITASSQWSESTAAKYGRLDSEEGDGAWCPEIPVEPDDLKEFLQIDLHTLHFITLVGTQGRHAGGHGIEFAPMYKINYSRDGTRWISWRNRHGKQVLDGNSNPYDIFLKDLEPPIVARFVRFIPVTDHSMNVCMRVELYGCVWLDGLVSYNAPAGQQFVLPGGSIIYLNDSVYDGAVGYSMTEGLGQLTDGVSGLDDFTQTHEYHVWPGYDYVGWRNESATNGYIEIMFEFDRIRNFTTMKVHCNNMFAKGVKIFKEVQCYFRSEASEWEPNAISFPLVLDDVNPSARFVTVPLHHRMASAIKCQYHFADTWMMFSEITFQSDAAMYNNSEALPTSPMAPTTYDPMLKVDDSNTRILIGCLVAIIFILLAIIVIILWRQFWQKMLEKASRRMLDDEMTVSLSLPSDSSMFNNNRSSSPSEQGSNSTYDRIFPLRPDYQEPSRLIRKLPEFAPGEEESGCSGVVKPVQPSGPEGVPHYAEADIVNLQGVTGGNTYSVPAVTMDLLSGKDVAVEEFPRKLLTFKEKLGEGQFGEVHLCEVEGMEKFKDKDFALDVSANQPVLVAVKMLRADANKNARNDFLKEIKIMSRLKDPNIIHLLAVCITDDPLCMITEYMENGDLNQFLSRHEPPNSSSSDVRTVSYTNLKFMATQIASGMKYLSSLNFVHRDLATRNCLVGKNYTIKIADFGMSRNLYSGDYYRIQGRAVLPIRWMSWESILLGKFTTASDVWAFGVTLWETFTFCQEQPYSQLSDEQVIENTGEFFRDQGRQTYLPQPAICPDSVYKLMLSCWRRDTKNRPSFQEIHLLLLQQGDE
Sequence of DDR1 (Q08345 19-913): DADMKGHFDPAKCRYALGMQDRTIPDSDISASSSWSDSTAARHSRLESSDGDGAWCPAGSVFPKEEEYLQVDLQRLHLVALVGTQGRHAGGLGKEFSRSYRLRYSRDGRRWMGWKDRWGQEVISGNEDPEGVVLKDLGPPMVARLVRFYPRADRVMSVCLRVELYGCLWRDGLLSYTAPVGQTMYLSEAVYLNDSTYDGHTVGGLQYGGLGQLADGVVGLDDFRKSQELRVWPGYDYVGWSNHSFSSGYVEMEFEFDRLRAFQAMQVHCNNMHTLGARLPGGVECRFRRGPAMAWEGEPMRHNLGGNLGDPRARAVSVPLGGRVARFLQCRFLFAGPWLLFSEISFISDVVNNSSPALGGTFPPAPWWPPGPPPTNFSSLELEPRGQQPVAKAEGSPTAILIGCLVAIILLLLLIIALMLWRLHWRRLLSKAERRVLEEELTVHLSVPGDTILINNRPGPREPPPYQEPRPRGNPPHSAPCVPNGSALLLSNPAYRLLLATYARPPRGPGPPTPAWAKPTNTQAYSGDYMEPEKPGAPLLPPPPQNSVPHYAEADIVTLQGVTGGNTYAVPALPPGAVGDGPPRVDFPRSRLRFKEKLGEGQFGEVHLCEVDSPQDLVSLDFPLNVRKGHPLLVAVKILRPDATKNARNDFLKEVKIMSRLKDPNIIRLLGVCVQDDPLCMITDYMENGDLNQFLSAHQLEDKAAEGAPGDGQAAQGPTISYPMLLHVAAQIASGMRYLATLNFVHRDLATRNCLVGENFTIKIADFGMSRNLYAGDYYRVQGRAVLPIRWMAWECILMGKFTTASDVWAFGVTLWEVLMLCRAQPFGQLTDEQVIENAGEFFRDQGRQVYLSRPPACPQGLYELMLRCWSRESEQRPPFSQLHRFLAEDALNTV

Cc1ccc(C(=O)Nc2cccc(C(F)(F)F)c2)cc1[C@@H]1CCN(c2cncc(C(N)=O)c2)C1 [Example 19, (S)-5-(3-(2-methyl-5-((3-(trifluoromethyl)phenyl)carbamoyl)phenyl)pyrrolidin-1-yl)nicotinamide]
Ki (DDR2; [1]): < 10 nM | Ki (DDR1; [2]): < 10 nM

Cc1ccc(C(=O)Nc2cccc(C(F)(F)F)c2)cc1[C@@H]1CCN(c2cncc(C(=O)NCCN(C)C)c2)C1 [Example 34, (S)-N-(2-(dimethylamino)ethyl)-5-(3-(2-methyl-5-((3-(trifluoromethyl)phenyl)carbamoyl)phenyl)pyrrolidin-1-yl)nicotinamide]
Ki (DDR2; [1]): < 10 nM | Ki (DDR1; [2]): < 10 nM

Cc1ccc(C(=O)Nc2cc(CN3CCCC3)cc(C(F)(F)F)c2)cc1[C@@H]1CCN(c2cncc(C(N)=O)c2)C1 [Example 57, (S)-5-(3-(2-methyl-5-((3-(pyrrolidin-1-ylmethyl)-5-(trifluoromethyl)phenyl)carbamoyl)phenyl)pyrrolidin-1-yl)nicotinamide]
Ki (DDR2; [1]): < 10 nM | Ki (DDR1; [2]): < 10 nM

Cc1ccc(C(=O)Nc2cccc(C(F)(F)F)c2)cc1C1CCN(c2cncc(N3CCOCC3)c2)C1 (centres unmarked) [Example 8, 4-methyl-3-(1-(5-morpholinopyridin-3-yl)pyrrolidin-3-yl)-N-(3-(trifluoromethyl)phenyl)benzamide]
Ki (DDR2; [1]): 25 to 60 nM | Ki (DDR1; [2]): < 10 nM

Cc1ccc(C(=O)Nc2cccc(C(F)(F)F)c2)cc1C1CCN(c2cccnc2)C1 (centres unmarked) [Example 2, 4-methyl-3-(1-(pyridin-3-yl)pyrrolidin-3-yl)-N-(3-(trifluoromethyl)phenyl)benzamide]
Ki (DDR2; [1]): < 10 nM | Ki (DDR1; [2]): < 10 nM

Cc1ccc(C(=O)Nc2cccc(C(F)(F)F)c2)cc1[C@@H]1CCN(c2cncc(C(=O)N3CCC(F)(F)CC3)c2)C1 [Example 32, (S)-3-(1-(5-(4,4-difluoropiperidine-1-carbonyl)pyridin-3-yl)pyrrolidin-3-yl)-4-methyl-N-(3-(trifluoromethyl)phenyl)benzamide]
Ki (DDR2; [1]): > 60 nM | Ki (DDR1; [2]): 25 to 60 nM

Cc1ccc(C(=O)Nc2cccc(C(F)(F)F)c2)cc1[C@@H]1CCN(c2ccc(Nc3cnn(C)c3)nc2)C1 [Example 44, (S)-4-methyl-3-(1-(6-((1-methyl-1H-pyrazol-4-yl)amino)pyridin-3-yl)pyrrolidin-3-yl)-N-(3-(trifluoromethyl)phenyl)benzamide]
Ki (DDR2; [1]): 25 to 60 nM | Ki (DDR1; [2]): 10 to 25 nM

Cc1ccc(C(=O)Nc2cccc(C(F)(F)F)c2)cc1[C@H]1CCN(c2cccnc2)C1 [Example 15, (R)-4-methyl-3-(1-(pyridin-3-yl)pyrrolidin-3-yl)-N-(3-(trifluoromethyl)phenyl)benzamide]
Ki (DDR2; [1]): 25 to 60 nM | Ki (DDR1; [2]): 10 to 25 nM

CNC(=O)c1cc(N2CC[C@@H](c3cc(C(=O)Nc4cccc(C(F)(F)F)c4)ccc3C)C2)ccn1 [Example 25, (S)-N-methyl-4-(3-(2-methyl-5-((3-(trifluoromethyl)phenyl)carbamoyl)phenyl)pyrrolidin-1-yl)picolinamide]
Ki (DDR2; [1]): < 10 nM | Ki (DDR1; [2]): < 10 nM

Cc1ccc(C(=O)Nc2cccc(C(F)(F)F)c2)cc1[C@@H]1CCN(c2cncc(C(=O)N3CCOCC3)c2)C1 [Example 33, (S)-4-methyl-3-(1-(5-(morpholine-4-carbonyl)pyridin-3-yl)pyrrolidin-3-yl)-N-(3-(trifluoromethyl)phenyl)benzamide]
Ki (DDR2; [1]): 10 to 25 nM | Ki (DDR1; [2]): < 10 nM

COCCNC(=O)c1cncc(N2CCC(c3cc(C(=O)Nc4cccc(C(F)(F)F)c4)ccc3C)C2)c1 (centres unmarked) [Example 9, N-(2-methoxyethyl)-5-(3-(2-methyl-5-((3-(trifluoromethyl)phenyl)carbamoyl)phenyl)pyrrolidin-1-yl)nicotinamide]
Ki (DDR2; [1]): 10 to 25 nM | Ki (DDR1; [2]): < 10 nM

Cc1ccc(C(=O)Nc2cccc(C(F)(F)F)c2)cc1C1CCN(c2cncc(Br)c2)C1 (centres unmarked) [Example 13, 3-(1-(5-bromopyridin-3-yl)pyrrolidin-3-yl)-4-methyl-N-(3-(trifluoromethyl)phenyl)benzamide]
Ki (DDR2; [1]): 25 to 60 nM | Ki (DDR1; [2]): 10 to 25 nM

CC(=O)Nc1ncc(N2CC[C@@H](c3cc(C(=O)Nc4cccc(C(F)(F)F)c4)ccc3C)C2)cn1 [Example 51, (S)-3-(1-(2-acetamidopyrimidin-5-yl)pyrrolidin-3-yl)-4-methyl-N-(3-(trifluoromethyl)phenyl)benzamide]
Ki (DDR2; [1]): 10 to 25 nM | Ki (DDR1; [2]): < 10 nM

Cc1ccc(C(=O)Nc2cccc(C(F)(F)F)c2)cc1C1CCN(c2ccnc(C(N)=O)c2)C1 (single isomer, unassigned) [Example 54, 4-(3-(2-methyl-5-((3-(trifluoromethyl)phenyl)carbamoyl)phenyl)pyrrolidin-1-yl)picolinamide]
Ki (DDR2; [1]): < 10 nM | Ki (DDR1; [2]): < 10 nM

Cc1ccc(C(=O)Nc2cccc(C(F)(F)F)c2)cc1C1CN1c1cccnc1 (centres unmarked) [Compound C1, 4-methyl-3-(1-(pyridin-3-yl)aziridin-2-yl)-N-(3-(trifluoromethyl)phenyl)benzamide, reference compound]
Ki (DDR2; DDR2 Ki (nM), same binding assay, numeric values): 305 nM | Ki (DDR1; [3]): 174 nM

Cc1ccc(C(=O)Nc2cccc(C(F)(F)F)c2)cc1[C@@H]1CCN(c2cnc3ccnn3c2)C1 [Example 43, (S)-4-methyl-3-(1-(pyrazolo[1,5-a]pyrimidin-6-yl)pyrrolidin-3-yl)-N-(3-(trifluoromethyl)phenyl)benzamide]
Ki (DDR2; [1]): 25 to 60 nM | Ki (DDR1; [2]): 25 to 60 nM

Cc1ccc(C(=O)Nc2cccc(C(F)(F)F)c2)cc1C1CCN(c2cncc(C(=O)NCCN(C)C)c2)C1 (centres unmarked) [Example 7, N-(2-(dimethylamino)ethyl)-5-(3-(2-methyl-5-((3-(trifluoromethyl)phenyl)carbamoyl)phenyl)pyrrolidin-1-yl)nicotinamide]
Ki (DDR2; [1]): < 10 nM | Ki (DDR1; [2]): < 10 nM

CNC(=O)c1cc(N2CCC(c3cc(C(=O)Nc4cccc(C(F)(F)F)c4)ccc3C)C2)ccn1 (centres unmarked) [Example 1, N-methyl-4-(3-(2-methyl-5-((3-(trifluoromethyl)phenyl)carbamoyl)phenyl)pyrrolidin-1-yl)picolinamide]
Ki (DDR2; [1]): < 10 nM | Ki (DDR1; [2]): < 10 nM

COc1cncc(N2CCC(c3cc(C(=O)Nc4cccc(C(F)(F)F)c4)ccc3C)C2)c1 (centres unmarked) [Example 3, 3-(1-(5-methoxypyridin-3-yl)pyrrolidin-3-yl)-4-methyl-N-(3-(trifluoromethyl)phenyl)benzamide]
Ki (DDR2; [1]): < 10 nM | Ki (DDR1; [2]): < 10 nM

CNC(=O)c1cc(N2CC[C@H](c3cc(C(=O)Nc4cccc(C(F)(F)F)c4)ccc3C)C2)ccn1 [Example 27, (R)-N-methyl-4-(3-(2-methyl-5-((3-(trifluoromethyl)phenyl)carbamoyl)phenyl)pyrrolidin-1-yl)picolinamide]
Ki (DDR2; [1]): 25 to 60 nM | Ki (DDR1; [2]): < 10 nM

Cc1ccc(C(=O)Nc2cccc(C(F)(F)F)c2)cc1C1CCN(c2cncc(CN3CCOCC3)c2)C1 (centres unmarked) [Example 11, 4-methyl-3-(1-(5-(morpholinomethyl)pyridin-3-yl)pyrrolidin-3-yl)-N-(3-(trifluoromethyl)phenyl)benzamide]
Ki (DDR2; [1]): 10 to 25 nM | Ki (DDR1; [2]): < 10 nM

Cc1ccc(C(=O)Nc2cccc(C(F)(F)F)c2)cc1[C@@H]1CCN(c2cncnc2)C1 [Example 20, (S)-4-methyl-3-(1-(pyrimidin-5-yl)pyrrolidin-3-yl)-N-(3-(trifluoromethyl)phenyl)benzamide]
Ki (DDR2; [1]): < 10 nM | Ki (DDR1; [2]): < 10 nM

Cc1ccc(C(=O)Nc2cccc(C(F)(F)F)c2)cc1C1CCN(Cc2cccnc2)C1 (centres unmarked) [Compound C2, 4-methyl-3-(1-(pyridin-3-ylmethyl)pyrrolidin-3-yl)-N-(3-(trifluoromethyl)phenyl)benzamide, reference compound]
Ki (DDR2; same binding assay, numeric values, read-out: DDR2 Ki): 764 nM | Ki (DDR1; [3]): 571 nM

Cc1ccc(C(=O)Nc2cccc(C(F)(F)F)c2)cc1[C@@H]1CCN(c2cncc(-c3cnn(C)c3)c2)C1 [Example 52, (S)-4-methyl-3-(1-(5-(1-methyl-1H-pyrazol-4-yl)pyridin-3-yl)pyrrolidin-3-yl)-N-(3-(trifluoromethyl)phenyl)benzamide]
Ki (DDR2; [1]): < 10 nM | Ki (DDR1; [2]): < 10 nM

Cc1ccc(C(=O)Nc2cccc(C(F)(F)F)c2)cc1C1CCN(c2cncc(N3CCN(C)CC3)c2)C1 (centres unmarked) [Example 12, 4-methyl-3-(1-(5-(4-methylpiperazin-1-yl)pyridin-3-yl)pyrrolidin-3-yl)-N-(3-(trifluoromethyl)phenyl)benzamide]
Ki (DDR2; [1]): 10 to 25 nM | Ki (DDR1; [2]): < 10 nM

CNC(=O)c1cncc(N2CCC(c3cc(C(=O)Nc4cccc(C(F)(F)F)c4)ccc3C)C2)c1 (centres unmarked) [Example 10, N-methyl-5-(3-(2-methyl-5-((3-(trifluoromethyl)phenyl)carbamoyl)phenyl)pyrrolidin-1-yl)nicotinamide]
Ki (DDR2; [1]): 10 to 25 nM | Ki (DDR1; [2]): < 10 nM

COCCn1cc(Nc2cncc(N3CC[C@@H](c4cc(C(=O)Nc5cccc(C(F)(F)F)c5)ccc4C)C3)c2)cn1 [Example 46, (S)-3-(1-(5-((1-(2-methoxyethyl)-1H-pyrazol-4-yl)amino)pyridin-3-yl)pyrrolidin-3-yl)-4-methyl-N-(3-(trifluoromethyl)phenyl)benzamide]
Ki (DDR2; [1]): 10 to 25 nM | Ki (DDR1; [2]): < 10 nM

Cc1ccc(C(=O)Nc2cccc(C(F)(F)F)c2)cc1C1CCN(C(=O)c2cccnc2)C1 (centres unmarked) [Example 14, 4-methyl-3-(1-nicotinoylpyrrolidin-3-yl)-N-(3-(trifluoromethyl)phenyl)benzamide]
Ki (DDR2; [1]): < 10 nM | Ki (DDR1; [2]): < 10 nM
